Source: PubChem BioAssay (NCI)
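96-well plates; 48 h exposure; 5 concentrations. Endpoints by linear interpolation between flanking doses. Not reached: highest tested concentration assigned. At the GI50, growth is halved. TGI denotes the concentration required for complete inhibition of growth.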

Assays:
Experiment in all cases: NCI-60 cell line screen, 48 h
[1] = system: SF-295 CNS
[2] = system: KM12 colon
[3] = system: OVCAR-8 ovarian
[4] = system: NCI-H522 lung
[5] = system: HOP-92 NSCLC
[6] = system: SW-620 colon
[7] = system: ACHN renal
[8] = system: NCI-H23 lung
[9] = system: HL-60(TB) leukemia
[10] = system: HCC-2998 colon
[11] = system: BT-549 breast
[12] = system: NCI-H226 lung
[13] = system: HCT-15 colon
[14] = system: SK-MEL-28 melanoma
[15] = system: SK-MEL-2 melanoma
[16] = system: UACC-62 melanoma
[17] = system: HT29 colon
[18] = system: A549 NSCLC
[19] = system: SK-OV-3 ovarian
[20] = system: SF-539 CNS
[21] = system: SK-MEL-5 melanoma
[22] = system: MDA-MB-231 breast
[23] = system: U251 CNS
[24] = system: MDA-MB-435
[25] = system: HS 578T breast
[26] = system: MCF7 breast
[27] = system: NCI/ADR-RES ovarian
[28] = system: UO-31 renal
[29] = system: CCRF-CEM leukemia
[30] = system: RPMI-8226 leukemia
[31] = system: SNB-19 CNS
[32] = system: OVCAR-3 ovarian
[33] = system: UACC-257 melanoma
[34] = system: A498 renal
[35] = system: RXF 393 renal
[36] = system: EKVX NSCLC
[37] = system: COLO 205 colon
[38] = system: SN12C renal
[39] = system: SF-268 CNS
[40] = system: OVCAR-4 ovarian
[41] = system: LOX IMVI melanoma
[42] = system: CAKI-1 renal
[43] = system: IGROV1 ovarian
[44] = system: MOLT-4 leukemia
[45] = system: DU-145 prostate
[46] = system: T-47D breast
[47] = system: K-562 leukemia
[48] = system: PC-3 prostate
[49] = system: M14 melanoma
[50] = system: OVCAR-5 ovarian
[51] = system: NCI-H460 lung
[52] = system: HCT-116 colon
[53] = system: MALME-3M melanoma
[54] = system: TK-10 renal
[55] = system: MDA-MB-468 breast
[56] = system: 786-0 renal
[57] = system: HOP-62 NSCLC

SMILES: Clc1cccc(N/N=C/c2c[nH]c3ccc(Br)cc23)n1
- GI50 [1]: 7.12 µM
- TGI [1]: 20.4 µM
- GI50 [2]: 2.69 µM
- TGI [2]: 9.62 µM
- GI50 [3]: 5.91 µM
- TGI [3]: 26 µM
- GI50 [4]: 1.01 µM
- TGI [4]: 11.9 µM
- GI50 [5]: 1.55 µM
- TGI [5]: 8.21 µM
- GI50 [6]: 3.22 µM
- TGI [6]: 15.5 µM
- GI50 [7]: 6.73 µM
- TGI [7]: 20.1 µM
- GI50 [8]: 10.2 µM
- TGI [8]: 23.4 µM
- GI50 [9]: 2.7 µM
- TGI [9]: 23.9 µM
- GI50 [10]: 4.07 µM
- TGI [10]: 14.3 µM
- GI50 [11]: 0.296 µM
- TGI [11]: 12.3 µM
- GI50 [12]: 0.416 µM
- TGI [12]: 18 µM
- GI50 [13]: 3.87 µM
- TGI [13]: 15.3 µM
- GI50 [14]: 14.2 µM
- TGI [14]: 27.3 µM
- GI50 [15]: 4.85 µM
- TGI [15]: 19.5 µM
- GI50 [16]: 0.718 µM
- TGI [16]: 18.1 µM
- GI50 [17]: 10.8 µM
- TGI [17]: 24 µM
- GI50 [18]: 11.7 µM
- TGI [18]: 26.3 µM
- GI50 [19]: 2.04 µM
- TGI [19]: 16 µM
- GI50 [20]: 1.6 µM
- TGI [20]: 15 µM
- GI50 [21]: 10.3 µM
- TGI [21]: 22 µM
- GI50 [22]: 1.47 µM
- TGI [22]: 8.95 µM
- GI50 [23]: 8.5 µM
- TGI [23]: 23.6 µM
- GI50 [24]: 2.6 µM
- TGI [24]: 11.6 µM
- GI50 [25]: 2.94 µM
- TGI [25]: 27.1 µM
- GI50 [26]: 3.74 µM
- TGI [26]: 17 µM
- GI50 [27]: 3.08 µM
- TGI [27]: 17.6 µM
- GI50 [28]: 0.391 µM
- TGI [28]: 14.8 µM
- GI50 [29]: 0.231 µM
- TGI [29]: 16 µM
- GI50 [30]: 2.2 µM
- TGI [30]: 20.4 µM
- GI50 [31]: 10.2 µM
- TGI [31]: 21.8 µM
- GI50 [32]: 2.11 µM
- TGI [32]: 11.1 µM
- GI50 [33]: 12 µM
- TGI [33]: 25.2 µM
- GI50 [34]: 17 µM
- TGI [34]: 32.2 µM
- GI50 [35]: 1.23 µM
- TGI [35]: 8.11 µM
- GI50 [36]: 1.6 µM
- TGI [36]: 14.6 µM
- GI50 [37]: 11.8 µM
- TGI [37]: 24.2 µM
- GI50 [38]: 0.695 µM
- TGI [38]: 13 µM
- GI50 [39]: 1.85 µM
- TGI [39]: 15.3 µM
- GI50 [40]: 6.12 µM
- TGI [40]: 23.9 µM
- GI50 [41]: 1.22 µM
- TGI [41]: 11 µM
- GI50 [42]: 1.29 µM
- TGI [42]: 12.2 µM
- GI50 [43]: 0.349 µM
- TGI [43]: 2.59 µM
- GI50 [44]: 0.416 µM
- TGI [44]: 11.5 µM
- GI50 [45]: 8.12 µM
- TGI [45]: 21 µM
- GI50 [46]: 3.38 µM
- TGI [46]: 20.3 µM
- GI50 [47]: 2 µM
- TGI [47]: 29.6 µM
- GI50 [48]: 1.25 µM
- TGI [48]: 14 µM
- GI50 [49]: 4 µM
- TGI [49]: 17.9 µM
- GI50 [50]: 10.2 µM
- TGI [50]: 22.1 µM
- GI50 [51]: 3.52 µM
- TGI [51]: 15.2 µM
- GI50 [52]: 4.36 µM
- TGI [52]: 18 µM
- GI50 [53]: 11.6 µM
- TGI [53]: 24.5 µM
- GI50 [54]: 14 µM
- TGI [54]: 27.2 µM
- GI50 [55]: 4.42 µM
- TGI [55]: 16.6 µM
- GI50 [56]: 6.61 µM
- TGI [56]: 20.3 µM
- GI50 [57]: 4.28 µM
- TGI [57]: 18.8 µM
